Assay results reported in US9221791B2, “Metalloenzyme inhibitor compounds” (Viamet Pharmaceuticals, Inc., priority 2011, dated 2015).
Converted amounts (≈) assume the structure as drawn.

Tests used:
[1] = system: Septoria tritici (ATCC 26517); assay: Minimum Inhibitory Concentration (MIC) (Septoria tritici), CLSI-based microdilution; assay type: cell-based; conditions: S. tritici ATCC 26517, 22° C. for seven days, 50% reduction in growth; for MIC: Zymoseptoria tritici, ATCC26517, 168 h, read-out: Septoria Rating (MIC)
Method in brief: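 S. tritici (ATCC 26517) tested by CLSI-style broth microdilution for filamentous fungi in RPMI-1640/MOPS, 2-fold series 16–0.016 μg/mL (11 concentrations, 2% DMSO before inoculum), duplicate rows. Inoculum ~5×10^4 cfu/mL; plates incubated 7 days at 22 °C in the dark, static; growth scored on a rating scale.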

[2] = system: C. albicans; assay: Minimum Inhibitory Concentration (MIC) (C. albicans), CLSI M27-A2; assay type: cell-based; conditions: Candida albicans; approximately 48 h at 35±1° C.; about 50% growth reduction
Experimental: A. Minimum Inhibitory Concentration (MIC) (C. albicans) Compounds of the present disclosure were assessed for their ability to inhibit the growth of common strains of fungus, C. albicans using a standardized procedure (CLSI M27-A2). Stock solutions of the test compounds and standards were prepared in DMSO at 1,600 μg/mL (C. albicans). Eleven, serial, one-half dilutions of compounds were prepared in 96-well plates in RPMI+MOPS. The assay concentration ranges were 8-0.001 μg/mL (C. albicans). Cell suspensions of C. albicans were prepared and added to each well at concentrations of approximately 3.7×10^3 colony-forming-units per milliliter (cfu/mL). All testing was in duplicate. The inoculated plates were incubated for approximately 48 h at 35±1° C. At the completion of incubation the wells of each plate were evaluated visually for the presence of fungal growth. […] For QC purposes C. krusei isolate ATCC 6258 (4.0×10^3 cfu/mL) was included in the VOR assay.

[3] = system: Puccinia recondita tritici = Puccinia triticina; assay: Fungicidal activity vs. leaf rust on wheat plants; assay type: in vivo; conditions: wheat (variety Yuma) sprayed at 50 ppm, inoculated on the following day, evaluated 7-9 days later; read-out: Puccinia Rating (% Disease Control @ 50 ppm)
Text: D. Evaluation of Fungicidal Activity Vs. Leaf Rust (Causal Agent Puccinia recondita tritici=Puccinia triticina; Bayer Code PUCCRT). […] Each pot contained 3-8 seedlings. These plants were sprayed until wet with the formulated test compounds. The compounds were formulated at 50 ppm in 10 vol. % acetone plus 90 vol. % Triton X water (deionized water 99.99 wt %+0.01 wt % Triton X100), giving a “formulated test compound.” Formulated test compounds were applied to plants using a turn table sprayer fitted with two opposing air atomization nozzles which delivered approximately 1500 L/ha of spray volume. On the following day, the leaves were inoculated with an aqueous spore suspension of Puccinia recondita tritici and the plants were kept in high humidity overnight to permit spores to germinate and infect the leaf. The plants were then transferred to a greenhouse until disease developed on untreated control plants. Disease severity was evaluated 7-9 days later, depending on the speed of disease development. In each case of Table 3, the Puccinia rating scale is as follows: […]

[4] = molecular target: CYP3A4 (Homo sapiens (Human), UniProt P08684); assay: Inhibition of Liver Cytochrome P450 Enzymes (pooled human liver microsomes), CYP3A4; assay type: in vitro ADME
Chain of CYP3A4 (P08684 whole entry): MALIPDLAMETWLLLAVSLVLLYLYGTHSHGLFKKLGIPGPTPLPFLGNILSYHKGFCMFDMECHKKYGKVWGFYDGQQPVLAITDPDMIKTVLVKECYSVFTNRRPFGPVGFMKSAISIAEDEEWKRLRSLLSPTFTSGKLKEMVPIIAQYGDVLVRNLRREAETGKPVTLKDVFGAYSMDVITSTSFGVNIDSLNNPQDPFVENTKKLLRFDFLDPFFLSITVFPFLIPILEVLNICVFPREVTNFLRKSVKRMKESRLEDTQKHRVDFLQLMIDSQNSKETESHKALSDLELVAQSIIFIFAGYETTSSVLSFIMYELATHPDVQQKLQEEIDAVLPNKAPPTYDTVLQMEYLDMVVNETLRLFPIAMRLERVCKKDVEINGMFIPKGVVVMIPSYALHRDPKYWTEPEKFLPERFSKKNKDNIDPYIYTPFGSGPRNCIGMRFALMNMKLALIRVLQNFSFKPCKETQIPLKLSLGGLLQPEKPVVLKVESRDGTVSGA
Experimental: B. Inhibition of Liver Cytochrome P450 Enzymes
Solutions of each test compound were separately prepared at concentrations of 20000, 6000, 2000, 600, 200, and 60 μM by serial dilution with DMSO:MeCN (50:50 v/v). The individual test compound solutions were then diluted 20-fold with DMSO:MeCN:deionized water (5:5:180 v/v/v) to concentrations of 1000, 300, 100, 30, 10, and 3 μM. Mixtures of isozyme inhibitors (sulfaphenazole, tranylcypromine, and ketoconazole as specific inhibitors of isozymes 2C9, 2C19, and 3A4, respectively) were prepared containing each inhibitor at concentrations of 6000, 2000, 600, 200, 60, 20, 6, and 2 μM by serial dilution with DMSO:CH3CN (50:50 v/v). […]
Pooled human liver microsome suspension (20 mg/mL) was diluted with phosphate buffer to obtain a 5 mg/mL suspension. […] Separate stock solutions of each substrate were prepared in DMSO:MeCN (50:50 v/v), mixed, and diluted in phosphate buffer to obtain a single solution containing each substrate at five times its experimentally determined Km concentration. […]
Substrate solution and microsome suspension were combined in a 1:1 volume ratio, mixed, and distributed to reaction wells of a PCR plate. […] A portion of the supernatant was analyzed by gradient reverse-phase HPLC with detection by electrospray ionization triple quadrupole mass spectrometry in the positive ion mode. […]

SMILES	MIC [1]	MIC [2]	pest or weed control at 50 ppm [3]	Septoria Rating (MIC) [1]	IC50 [4]
CCOC(=O)/C=C/c1ccc(C(F)(F)C(O)(Cn2cnnn2)c2ccc(F)cc2F)nc1 (stereo not drawn) [Compound 4, (E)-Ethyl 3-(6-(2-(2,4-difluorophenyl)-1,1-difluoro-2-hydroxy-3-(1H-tetrazol-1-yl)propyl)pyridin-3-yl)acrylate]	≤ 0.5 µg/mL	≤ 0.016 µg/mL			
OC(Cn1cnnn1)(c1ccc(F)cc1F)C(F)(F)c1ccc(/C=C/COCC(F)(F)F)cn1 (stereo not drawn) [Compound 6, (E)-2-(2,4-Difluorophenyl)-1,1-difluoro-3-(1H-tetrazol-1-yl)-1-(5-(3-(2,2,2-trifluoroethoxy)prop-1-en-1-yl)pyridin-2-yl)propan-2-ol]	≤ 0.5 µg/mL	≤ 0.016 µg/mL	< 40%		
OC(Cn1cnnn1)(c1ccc(F)cc1F)C(F)(F)c1ccc(-c2ccc(F)nc2)cn1 (stereo not drawn) [Compound 31, 2-(2,4-Difluorophenyl)-1,1-difluoro-1-(6′-fluoro-[3,3′-bipyridin]-6-yl)-3-(1H-tetrazol-1-yl)propan-2-ol]		0.062 µg/mL (≈ 0.138 µM)		C (>1.5-4)	33 µM
N#Cc1cccc(OCc2ccc(C(F)(F)C(O)(Cn3cnnn3)c3ccc(F)cc3F)nc2)c1F (stereo not drawn) [Compound 89, 3-((6-(2-(2,4-difluorophenyl)-1,1-difluoro-2-hydroxy-3-(1H-tetrazol-1-yl)propyl)pyridin-3-yl)methoxy)-2-fluorobenzonitrile]	≤ 0.5 µg/mL		80 to 100%		
N#Cc1ccc(SCc2ccc(C(F)(F)C(O)(Cn3cnnn3)c3ccc(F)cc3F)nc2)c(F)c1 (stereo not drawn) [Compound 90, 4-(((6-(2-(2,4-difluorophenyl)-1,1-difluoro-2-hydroxy-3-(1H-tetrazol-1-yl)propyl)pyridin-3-yl)methyl)thio)-3-fluorobenzonitrile]	1.5 µg/mL (≈ 2.89 µM)		40 to 59%		
OC(Cn1cnnn1)(c1ccc(F)cc1F)C(F)(F)c1ccc(COC(F)F)cn1 (stereo not drawn) [Compound 92, 1-(5-((difluoromethoxy)methyl)pyridin-2-yl)-2-(2,4-difluorophenyl)-1,1-difluoro-3-(1H-tetrazol-1-yl)propan-2-ol]	≤ 0.5 µg/mL		80 to 100%		
N#Cc1ccc(-c2ccc(C(F)(F)C(O)(Cn3cnnn3)c3ccc(F)cc3F)nc2)nc1 (stereo not drawn) [Compound 95, 6′-(2-(2,4-difluorophenyl)-1,1-difluoro-2-hydroxy-3-(1H-tetrazol-1-yl)propyl)-[2,3′-bipyridine]-5-carbonitrile]	1.5 to 4 µg/mL (≈ 3.29 to 8.78 µM)		80 to 100%		
N#Cc1ccc(OCc2ccc(C(F)(F)C(O)(Cn3cnnn3)c3ccc(F)cc3F)nc2)nc1 (stereo not drawn) [Compound 98, 6-((6-(2-(2,4-difluorophenyl)-1,1-difluoro-2-hydroxy-3-(1H-tetrazol-1-yl)propyl)pyridin-3-yl)methoxy)nicotinonitrile]	≤ 0.5 µg/mL		80 to 100%		

Now from value to compound, other results behind:

MIC [1]	MIC [2]	SMILES	pest or weed control at 50 ppm [3]	Septoria Rating (MIC) [1]	IC50 [4]
	0.062 µg/mL (≈ 0.133 µM)	OC(Cn1cnnn1)(c1ccc(F)cc1F)C(F)(F)c1ccc(-c2ccc(Cl)nc2)cn1 (stereo not drawn) [Compound 30, 1-(6′-Chloro-[3,3′-bipyridin]-6-yl)-2-(2,4-difluorophenyl)-1,1-difluoro-3-(1H-tetrazol-1-yl)propan-2-ol]	80 to 100%		
≤ 0.5 µg/mL		OC(Cn1cnnn1)(c1ccc(F)cc1F)C(F)(F)c1ccc(-c2ccc(Cl)cn2)cn1 (stereo not drawn) [Compound 93, 1-(5-chloro-[2,3′-bipyridin]-6′-yl)-2-(2,4-difluorophenyl)-1,1-difluoro-3-(1H-tetrazol-1-yl)propan-2-ol]	80 to 100%		
≤ 0.5 µg/mL		OC(Cn1cnnn1)(c1ccc(F)cc1F)C(F)(F)c1ccc(-c2ccc(C(F)(F)F)cn2)cn1 (stereo not drawn) [Compound 94, 2-(2,4-difluorophenyl)-1,1-difluoro-3-(1H-tetrazol-1-yl)-1-(5-(trifluoromethyl)-[2,3′-bipyridin]-6′-yl)propan-2-ol]	80 to 100%		
1.5 to 4 µg/mL (≈ 3.49 to 9.29 µM)		OC(Cn1cnnn1)(c1ccc(F)cc1F)C(F)(F)c1ccc(-c2ccncc2)cn1 (stereo not drawn) [Compound 96, 1-([3,4′-bipyridin]-6-yl)-2-(2,4-difluorophenyl)-1,1-difluoro-3-(1H-tetrazol-1-yl)propan-2-ol]	60 to 79%		
≤ 0.5 µg/mL		OC(Cn1cnnn1)(c1ccc(F)cc1F)C(F)(F)c1ccc(COc2ccc(C(F)(F)F)cn2)cn1 (stereo not drawn) [Compound 99, 2-(2,4-difluorophenyl)-1,1-difluoro-3-(1H-tetrazol-1-yl)-1-(5-(((5-(trifluoromethyl)pyridin-2-yl)oxy)methyl)pyridin-2-yl)propan-2-ol]	80 to 100%		
≤ 0.5 µg/mL		OC(Cn1cnnn1)(c1ccc(F)cc1F)C(F)(F)c1ccc(COc2ncc(C(F)(F)F)cc2Cl)cn1 (stereo not drawn) [Compound 100]	80 to 100%		
1.5 to 4 µg/mL (≈ 3.02 to 8.04 µM)		OC(Cn1cnnn1)(c1ccc(F)cc1F)C(F)(F)c1ccc(C(F)(F)c2ccc(F)cc2)cn1 (stereo not drawn) [Compound 101, 1-(5-(difluoro(4-fluorophenyl)methyl)pyridin-2-yl)-2-(2,4-difluorophenyl)-1,1-difluoro-3-(1H-tetrazol-1-yl)propan-2-ol]	80 to 100%		
1.5 to 4 µg/mL (≈ 2.74 to 7.31 µM)		OC(Cn1cnnn1)(c1ccc(F)cc1F)C(F)(F)c1ccc(C(F)(F)c2ccc(C(F)(F)F)cc2)cn1 (stereo not drawn) [Compound 102, 1-(5-(difluoro(4-(trifluoromethyl)phenyl)methyl)pyridin-2-yl)-2-(2,4-difluorophenyl)-1,1-difluoro-3-(1H-tetrazol-1-yl)propan-2-ol]	80 to 100%		
1.5 to 4 µg/mL (≈ 2.97 to 7.93 µM)		N#Cc1ccc(C(F)(F)c2ccc(C(F)(F)C(O)(Cn3cnnn3)c3ccc(F)cc3F)nc2)cc1 (stereo not drawn) [Compound 103, 4-((6-(2-(2,4-difluorophenyl)-1,1-difluoro-2-hydroxy-3-(1H-tetrazol-1-yl)propyl)pyridin-3-yl)difluoromethyl)benzonitrile]	80 to 100%		
